In the supplement of paper PMC4932681:
Counter-ions that a name gives are not always drawn.

Key:
[1] = tested on: ZR-75-1 Tam2; test: relative IC50 (midpoint of fitted logistic curve, plateau may be below 50% inhibition; CellTiter-Glo viability); higher = less potent; settings: 4-OH-tamoxifen in medium 1 µM; 72 h
Procedure, shortened: (§1)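 Breast cancer cell lines and their resistant derivatives were seeded into 384-well plates containing library drugs at five concentrations across a 10 000-fold range, with resistant lines kept in medium with 1 μM of the selecting drug. After 72 h at 37 °C, CellTiter-Glo viability was read on a PHERAstar and normalised to vehicle-only and positive controls. Logistic dose–response fits in the Breeze pipeline gave drug sensitivity score, relative IC50 (curve midpoint) and top-dose inhibition.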

[2] = tested on: MCF-7; test: as above; settings: 72 h
Procedure, shortened: as §1

[3] = tested on: T-47D; test: as above; settings: 72 h
Procedure, shortened: as §1

[4] = tested on: BT-474 Tam1; test: as above; settings: 4-OH-tamoxifen in medium 1 µM; 72 h
Procedure, shortened: as §1

[5] = tested on: MCF-7 Tam1; test: as above; settings: 4-OH-tamoxifen in medium 1 µM; 72 h
Procedure, shortened: as §1

[6] = tested on: BT-474 Tam2; test: as above; settings: 4-OH-tamoxifen in medium 1 µM; 72 h
Procedure, shortened: as §1

[7] = tested on: ZR-75-1; test: as above; settings: 72 h
Procedure, shortened: as §1

[8] = tested on: T-47D Tam1; test: as above; settings: 4-OH-tamoxifen in medium 1 µM; 72 h
Procedure, shortened: as §1

[9] = tested on: BT-474; test: as above; settings: 72 h
Procedure, shortened: as §1

[10] = tested on: T-47D Tam2; test: as above; settings: 4-OH-tamoxifen in medium 1 µM; 72 h
Procedure, shortened: as §1

[11] = tested on: ZR-75-1 Tam1; test: as above; settings: 4-OH-tamoxifen in medium 1 µM; 72 h
Procedure, shortened: as §1

[12] = tested on: ZR-75-1 Tam2; test: drug sensitivity score (DSS) (DSS (dimensionless)); higher = more sensitive; extreme values may be limits of the assay; settings: 4-OH-tamoxifen in medium 1 µM; 72 h
Procedure, shortened: as §1

[13] = tested on: MCF-7; test: as above; settings: 72 h
Procedure, shortened: as §1

[14] = tested on: T-47D; test: as above; settings: 72 h
Procedure, shortened: as §1

[15] = tested on: BT-474 Tam1; test: as above; settings: 4-OH-tamoxifen in medium 1 µM; 72 h
Procedure, shortened: as §1

[16] = tested on: MCF-7 Tam1; test: as above; settings: 4-OH-tamoxifen in medium 1 µM; 72 h
Procedure, shortened: as §1

[17] = tested on: BT-474 Tam2; test: as above; settings: 4-OH-tamoxifen in medium 1 µM; 72 h
Procedure, shortened: as §1

[18] = tested on: ZR-75-1; test: as above; settings: 72 h
Procedure, shortened: as §1

[19] = tested on: T-47D Tam1; test: as above; settings: 4-OH-tamoxifen in medium 1 µM; 72 h
Procedure, shortened: as §1

[20] = tested on: BT-474; test: as above; settings: 72 h
Procedure, shortened: as §1

[21] = tested on: T-47D Tam2; test: as above; settings: 4-OH-tamoxifen in medium 1 µM; 72 h
Procedure, shortened: as §1

[22] = tested on: ZR-75-1 Tam1; test: as above; settings: 4-OH-tamoxifen in medium 1 µM; 72 h
Procedure, shortened: as §1

Structure (SMILES)	relative IC50 [1] [µM]	relative IC50 ([2]; 4-OH-tamoxifen in medium 0 µM) [µM]	relative IC50 ([2]; 4-OH-tamoxifen in medium 1 µM) [µM]	relative IC50 ([3]; 4-OH-tamoxifen in medium 0 µM) [µM]	relative IC50 ([3]; 4-OH-tamoxifen in medium 1 µM) [µM]	relative IC50 [4] [µM]	relative IC50 [5] [µM]	relative IC50 [6] [µM]	relative IC50 ([7]; 4-OH-tamoxifen in medium 0 µM) [µM]	relative IC50 ([7]; 4-OH-tamoxifen in medium 1 µM) [µM]	relative IC50 [8] [µM]	relative IC50 ([9]; 4-OH-tamoxifen in medium 0 µM) [µM]	relative IC50 ([9]; 4-OH-tamoxifen in medium 1 µM) [µM]	relative IC50 [10] [µM]	relative IC50 [11] [µM]	drug sensitivity score [12]	drug sensitivity score ([13]; 4-OH-tamoxifen in medium 0 µM)	drug sensitivity score ([13]; 4-OH-tamoxifen in medium 1 µM)	drug sensitivity score ([14]; 4-OH-tamoxifen in medium 0 µM)	drug sensitivity score ([14]; 4-OH-tamoxifen in medium 1 µM)	drug sensitivity score [15]	drug sensitivity score [16]	drug sensitivity score [17]	drug sensitivity score ([18]; 4-OH-tamoxifen in medium 0 µM)	drug sensitivity score ([18]; 4-OH-tamoxifen in medium 1 µM)	drug sensitivity score [19]	drug sensitivity score ([20]; 4-OH-tamoxifen in medium 0 µM)	drug sensitivity score ([20]; 4-OH-tamoxifen in medium 1 µM)	drug sensitivity score [21]	drug sensitivity score [22]
CNCc1ccc(-c2[nH]c3cc(F)cc4c3c2CCNC4=O)cc1	> 10	> 10	> 10	> 10	> 10	> 10	> 10	> 10	> 10	> 10	> 10	> 10	> 10	> 10	> 10	0	0	0	0	0	0	0	0	0	0	0	0	0	0	0
O=C(O)C1(C(=O)O)CCC1.[NH2-].[NH2-].[Pt+2] [Carboplatin]	> 10	> 10	> 10	> 10	> 10	> 10	> 10	> 10	> 10	> 10	> 10	> 10	> 10	> 10	> 10	0	0	0	0	0	0	0	0	0	0	0	0	0	0	0
Cc1ccc([N+](=O)[O-])cc1S(=O)(=O)N(C)/N=C/c1cnc2ccc(Br)cn12 [PIK-75 (HCl)]	0.108	0.0332	0.0305	0.0332	0.0813	0.0316	0.0505	0.0587	0.133	0.0945	0.0483	0.148	0.0486	0.0826	0.309	18.9	22.3	26.4	21.8	15.3	29.8	22.6	26.8	16.9	16.7	25.1	21.2	27.2	20.5	14.9
